Experimental data as given in ChEMBL document CHEMBL5120838, “Synthesis and biological evaluation of geniposide derivatives as inhibitors of hyperuricemia, inflammatory and fibrosis” (Eur J Med Chem, 2022).
Active and inactive are the calls of the source. The rule behind the calls is not given here.

Columns and labels:
[1] = system: HK-2; experiment: Inhibition of epithelial-mesenchymal transition in human HK-2 cells assessed as downregulation of uric acid-induced collagen-1 protein expression by Western blot analysis; type: functional, cell-based; conditions: dose 12.5-100 µM, DDE = dose-dependent effect
[2] = system: Mus musculus; experiment: Anti-hyperuricemic activity against adenine and potassium oxonate-induced hyperuricemia Kunming mouse model assessed as reduction in serum uric acid level at 5 mg/kg, po administered via gavage once daily for 4 weeks (reference value: 356.15 +/- 3.31 uM); type: functional
[3] = target: T1, Xanthine dehydrogenase/oxidase (Bos taurus, UniProt P80457); experiment: Inhibition of bovine XOD assessed as inhibition of uric acid formation using xanthine as substrate preincubated with enzyme for 5 mins followed by substrate addition and measured for 30 mins by microplate reader analysis
T1 sequence (P80457 whole entry): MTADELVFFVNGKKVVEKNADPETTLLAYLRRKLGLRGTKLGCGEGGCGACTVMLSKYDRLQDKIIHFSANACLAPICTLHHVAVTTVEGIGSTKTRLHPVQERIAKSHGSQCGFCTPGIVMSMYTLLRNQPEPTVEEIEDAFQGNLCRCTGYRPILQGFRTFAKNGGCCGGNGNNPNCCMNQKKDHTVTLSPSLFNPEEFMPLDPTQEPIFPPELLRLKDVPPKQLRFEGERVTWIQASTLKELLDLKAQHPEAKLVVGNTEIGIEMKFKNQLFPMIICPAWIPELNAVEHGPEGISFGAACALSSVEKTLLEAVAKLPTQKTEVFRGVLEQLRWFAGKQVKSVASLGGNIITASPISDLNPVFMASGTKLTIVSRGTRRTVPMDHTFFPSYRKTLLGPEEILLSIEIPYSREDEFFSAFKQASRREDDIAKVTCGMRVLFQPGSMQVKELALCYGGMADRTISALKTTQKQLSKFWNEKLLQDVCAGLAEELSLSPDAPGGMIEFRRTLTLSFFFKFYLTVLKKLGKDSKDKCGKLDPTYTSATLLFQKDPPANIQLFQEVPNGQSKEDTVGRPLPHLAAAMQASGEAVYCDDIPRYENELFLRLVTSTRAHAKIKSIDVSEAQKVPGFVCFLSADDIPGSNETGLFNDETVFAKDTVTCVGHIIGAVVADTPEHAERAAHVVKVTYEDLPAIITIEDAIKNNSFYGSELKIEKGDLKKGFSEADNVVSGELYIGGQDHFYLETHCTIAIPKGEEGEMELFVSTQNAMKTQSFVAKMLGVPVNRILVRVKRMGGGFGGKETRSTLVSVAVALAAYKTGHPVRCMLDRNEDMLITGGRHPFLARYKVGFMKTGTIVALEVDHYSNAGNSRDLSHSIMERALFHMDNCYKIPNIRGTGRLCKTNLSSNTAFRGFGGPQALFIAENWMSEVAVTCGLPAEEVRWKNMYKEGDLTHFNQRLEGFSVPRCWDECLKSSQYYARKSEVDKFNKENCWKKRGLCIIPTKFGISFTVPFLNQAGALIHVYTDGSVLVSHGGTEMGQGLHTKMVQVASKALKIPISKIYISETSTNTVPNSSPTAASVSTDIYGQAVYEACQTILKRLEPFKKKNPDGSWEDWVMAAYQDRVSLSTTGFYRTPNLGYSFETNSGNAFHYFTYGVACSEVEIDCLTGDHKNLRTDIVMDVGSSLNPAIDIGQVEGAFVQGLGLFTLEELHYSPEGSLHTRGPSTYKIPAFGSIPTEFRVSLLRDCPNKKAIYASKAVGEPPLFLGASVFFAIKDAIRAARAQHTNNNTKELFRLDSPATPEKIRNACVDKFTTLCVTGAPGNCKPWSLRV

[4] = system: Mus musculus; experiment: Anti-hyperuricemic activity against adenine and potassium oxonate-induced hyperuricemia Kunming mouse model assessed as reduction in serum uric acid level at 20 mg/kg, po administered via gavage once daily for 2 weeks (reference value: 318.16 +/- 3.31 uM); type: functional
[5] = system: Mus musculus; experiment: Anti-hyperuricemic activity against adenine and potassium oxonate-induced hyperuricemia Kunming mouse model assessed as reduction in serum creatinine level at 20 mg/kg, po administered via gavage once daily for 2 weeks (reference value: 87.62 +/- 0.67 uM); type: functional
[6] = system: Mus musculus; experiment: Anti-hyperuricemic activity against adenine and potassium oxonate-induced hyperuricemia Kunming mouse model assessed as blood urea nitrogen level at 20 mg/kg, po administered via gavage once daily for 2 weeks (reference value: 9.88 +/- 1.21 mM); type: functional
[7] = system: Mus musculus; experiment: (§1) Nephroprotective activity against adenine and potassium oxonate-induced hyperuricemia Kunming mouse model assessed as reduction in renal tubule dilation at 20 mg/kg, po administered via gavage and measured after 21 days by hematoxylin-eosin and Masson trichrome staining based optical microscopic analysis; type: functional, organism-based; conditions: time 21.0 day
[8] = system: Mus musculus; experiment: (§2) Nephroprotective activity against adenine and potassium oxonate-induced hyperuricemia Kunming mouse model assessed as reduction in cytoplasmic vacuolation of renal tubular epithelial cells at 20 mg/kg, po administered via gavage and measured after 21 days by hematoxylin-eosin and Masson trichrome staining based optical microscopic analysis; type: functional, organism-based; conditions: time 21.0 day
[9] = system: Mus musculus; experiment: as §2, with “appearance” for “reduction in cytoplasmic vacuolation”, “clear” for “renal”, “structures” for “epithelial cells”; type: functional, organism-based; conditions: time 21.0 day
[10] = system: Mus musculus; experiment: as §1, with “connective tissue hyperplasia” for “renal tubule dilation”; type: functional, organism-based; conditions: time 21.0 day
[11] = system: Mus musculus; experiment: as §1, with “neutrophils infiltrations” for “renal tubule dilation”; type: functional, organism-based; conditions: time 21.0 day
[12] = system: Mus musculus; experiment: as §1, with “tubular-interstitial lesion development” for “renal tubule dilation”; type: functional, organism-based; conditions: time 21.0 day
[13] = target: T1, Xanthine dehydrogenase/oxidase; experiment: Mixed type inhibition of bovine XOD assessed as decrease in Vmax with increase in Km at upto 20 uM using varying levels of xanthine as substrate by Lineweaver-Burk plot analysis; conditions: cattle
[14] = system: Mus musculus; experiment: Renal protective activity against po dosed adenine and potassium oxonate-induced hyperuricemia Kunming mouse model assessed as reduction in TGF-beta1 expression in kidney administered via gavage for 2 weeks by immunohistochemical staining based optical microscopic analysis; type: functional, organism-based; conditions: dose 5-20 mg/kg, DDE = dose-dependent effect
[15] = Stability in simulated gastric fluid assessed as parent compound remaining incubated for 4 hrs by HPLC analysis; type: ADME; conditions: read-out: Stability
[16] = Stability in simulated intestinal fluid assessed as parent compound remaining incubated for 4 hrs by HPLC analysis; type: ADME; conditions: read-out: Stability
[17] = system: Mus musculus; experiment: Anti-hyperuricemic activity against adenine and potassium oxonate-induced hyperuricemia Kunming mouse model assessed as reduction in serum uric acid level at 10 mg/kg, po administered via gavage once daily for 4 weeks (reference value: 356.15 +/- 3.31 uM); type: functional
[18] = system: Mus musculus; experiment: Anti-hyperuricemic activity against adenine and potassium oxonate-induced hyperuricemia Kunming mouse model assessed as reduction in serum uric acid level at 20 mg/kg, po administered via gavage once daily for 4 weeks (reference value: 356.15 +/- 3.31 uM); type: functional
[19] = system: Mus musculus; experiment: Anti-hyperuricemic activity against adenine and potassium oxonate-induced hyperuricemia Kunming mouse model assessed as reduction in creatinine level at 5 mg/kg, po administered via gavage once daily for 4 weeks (reference value: 76.87 +/- 0.67 uM); type: functional
[20] = system: Mus musculus; experiment: Anti-hyperuricemic activity against adenine and potassium oxonate-induced hyperuricemia Kunming mouse model assessed as reduction in creatinine level at 10 mg/kg, po administered via gavage once daily for 4 weeks (reference value: 76.87 +/- 0.67 uM); type: functional
[21] = system: Mus musculus; experiment: Anti-hyperuricemic activity against adenine and potassium oxonate-induced hyperuricemia Kunming mouse model assessed as reduction in creatinine level at 20 mg/kg, po administered via gavage once daily for 4 weeks (reference value: 76.87 +/- 0.67 uM); type: functional
[22] = system: Mus musculus; experiment: Anti-hyperuricemic activity against adenine and potassium oxonate-induced hyperuricemia Kunming mouse model assessed as blood urea nitrogen level at 5 mg/kg, po administered via gavage once daily for 4 weeks (reference value: 15.25 +/- 1.21 mM); type: functional
[23] = system: Mus musculus; experiment: Anti-hyperuricemic activity against adenine and potassium oxonate-induced hyperuricemia Kunming mouse model assessed as blood urea nitrogen level at 10 mg/kg, po administered via gavage once daily for 4 weeks (reference value: 15.25 +/- 1.21 mM); type: functional
[24] = system: Mus musculus; experiment: Anti-hyperuricemic activity against adenine and potassium oxonate-induced hyperuricemia Kunming mouse model assessed as blood urea nitrogen level at 20 mg/kg, po administered via gavage once daily for 4 weeks (reference value: 15.25 +/- 1.21 mM); type: functional
[25] = system: Mus musculus; experiment: In vivo inhibition of XOD in po dosed adenine and potassium oxonate-induced hyperuricemia Kunming mouse model assessed as reduction in XOD activity in liver administered via gavage once daily for 2 weeks; type: functional, organism-based; conditions: dose 5-20 mg/kg, DDE = dose-dependent effect
[26] = system: HK-2; experiment: Inhibition of epithelial-mesenchymal transition in human HK-2 cells assessed as downregulation of uric acid-induced alpha-SMA protein expression by Western blot analysis; type: functional, cell-based; conditions: dose 12.5-100 µM, DDE = dose-dependent effect
[27] = system: HK-2; experiment: Antiinflammatory activity in hyperuricemic human HK-2 cells assessed as reduction in TGF-beta level at 12.5 to 100 uM; type: functional, cell-based; conditions: dose 12.5-100 µM
[28] = system: HK-2; experiment: Antiinflammatory activity in hyperuricemic human HK-2 cells assessed as reduction in TNF-alpha level at 12.5 to 100 uM; type: functional, cell-based; conditions: dose 12.5-100 µM
[29] = system: HK-2; experiment: Antiinflammatory activity in hyperuricemic human HK-2 cells assessed as reduction in IL-1beta level at 12.5 to 100 uM; type: functional, cell-based; conditions: dose 12.5-100 µM
[30] = system: HK-2; experiment: Cytoprotective activity in human HK-2 cells assessed as reduction in uric acid-induced cell remodeling by inverted light microscopic analysis; type: functional, cell-based; conditions: dose 12.5-100 µM
[31] = system: HK-2; experiment: Cytoprotective activity in human HK-2 cells assessed as reduction in uric acid-induced increase in branches and intracellular space by inverted light microscopic analysis; type: functional, cell-based; conditions: dose 12.5-100 µM
[32] = system: Mus musculus; experiment: Renal protective activity against po dosed adenine and potassium oxonate-induced hyperuricemia Kunming mouse model assessed as reduction in urate accumulation in kidney administered via gavage for 2 weeks by polarization microscopic analysis; type: functional, organism-based; conditions: dose 5-20 mg/kg, DDE = dose-dependent effect
[33] = system: Mus musculus; experiment: (§3) Renal protective activity against adenine and potassium oxonate-induced hyperuricemia Kunming mouse model assessed as reduction in TNF-alpha expression in kidney at 5 to 20 mg/kg, po administered via gavage for 2 weeks by ELISA; type: functional, organism-based; conditions: dose 5-20 mg/kg
[34] = system: Mus musculus; experiment: Renal protective activity against adenine and potassium oxonate-induced hyperuricemia Kunming mouse model assessed as reduction in IL-1beta expression in kidney at 5 to 20 mg/kg, po administered via gavage for 2 weeks by ELISA relative to control; type: functional; parameters: scale not given: the % may be the effect or the level left; conditions: dose 5-20 mg/kg
[35] = system: Mus musculus; experiment: Renal protective activity against adenine and potassium oxonate-induced hyperuricemia Kunming mouse model assessed as reduction in IL-8 expression in kidney at 5 to 20 mg/kg, po administered via gavage for 2 weeks by ELISA relative to control; type: functional; parameters: scale not given: the % may be the effect or the level left; conditions: dose 5-20 mg/kg
[36] = system: Mus musculus; experiment: (§4) Renal protective activity against adenine and potassium oxonate-induced hyperuricemia Kunming mouse model assessed as reduction in hyperuricemia-induced renal fibrosis by measuring tubular dilation with epithelial atrophy at 5 to 20 mg/kg, po administered via gavage for 2 weeks by Masson trichrome staining based optical microscopic analysis; type: functional, organism-based; conditions: dose 5-20 mg/kg
[37] = system: Mus musculus; experiment: as §4, with “extracellular matrix protein deposition” for “hyperuricemia-induced renal fibrosis”, “interstitial expansion” for “tubular dilation”, “collagen accumulation” for “epithelial atrophy”; type: functional, organism-based; conditions: dose 5-20 mg/kg
[38] = system: Mus musculus; experiment: as §3, with “hyperuricemia-induced renal fibrosis by measuring reduction in alpha-SMA” for “TNF-alpha”, “immunoblot analysis” for “ELISA”; type: functional, organism-based; conditions: dose 5-20 mg/kg
[39] = system: Mus musculus; experiment: as §3, with “hyperuricemia-induced renal fibrosis by measuring reduction in collagen-1” for “TNF-alpha”, “immunoblot analysis” for “ELISA”; type: functional, organism-based; conditions: dose 5-20 mg/kg
[40] = system: Mus musculus; experiment: Renal protective activity against adenine and potassium oxonate-induced hyperuricemia Kunming mouse model assessed as reduction in renal inflammation by measuring reduction in TLR4 expression at 5 to 20 mg/kg, po administered via gavage for 2 weeks by Western blot analysis; type: functional, organism-based; conditions: dose 5-20 mg/kg
[41] = system: Mus musculus; experiment: Renal protective activity against adenine and potassium oxonate-induced hyperuricemia Kunming mouse model assessed as reduction in renal inflammation by measuring reduction in NF-kappaB expression at 5 to 20 mg/kg, po administered via gavage for 2 weeks by Western blot analysis; type: functional, organism-based; conditions: dose 5-20 mg/kg
[42] = system: Mus musculus; experiment: Renal protective activity against adenine and potassium oxonate-induced hyperuricemia Kunming mouse model assessed as reduction in renal inflammation by measuring reduction in IkappaBalpha expression at 5 to 20 mg/kg, po administered via gavage for 2 weeks by Western blot analysis; type: functional, organism-based; conditions: dose 5-20 mg/kg
[43] = system: Mus musculus; experiment: Renal protective activity against adenine and potassium oxonate-induced hyperuricemia Kunming mouse model assessed as reduction in renal inflammation by measuring reduction in TNF-alpha expression at 5 to 20 mg/kg, po administered via gavage for 2 weeks by Western blot analysis; type: functional, organism-based; conditions: dose 5-20 mg/kg

Compound: CC(=O)OCC1=CC[C@@H]2C(C(=O)Nc3ncco3)=CO[C@@H](O[C@@H]3O[C@H](COC(C)=O)[C@@H](OC(C)=O)[C@H](OC(C)=O)[C@H]3OC(C)=O)[C@H]12
- inhibition [1]: Dde
- Activity [2]: 198.27 µM
- IC50 [3]: 1370 nM
- Activity [4]: 235.87 µM
- Activity [5]: 29.08 µM
- Activity [6]: 5.62 mM
- Activity [7]: Active
- Activity [8]: Active
- Activity [9]: Active
- Activity [10]: Active
- Activity [11]: Active
- Activity [12]: Active
- inhibition (INH) [13]: Active
- Activity [14]: Dde
- remaining at 4 h [15]: 47.6%
- remaining at 4 h [16]: 53.3%
- Activity [17]: 188.16 µM
- Activity [18]: 182.66 µM
- Activity [19]: 54.79 µM
- Activity [20]: 47.17 µM
- Activity [21]: 38.81 µM
- Activity [22]: 10.05 mM
- Activity [23]: 8.82 mM
- Activity [24]: 8.02 mM
- inhibition [25]: Dde
- inhibition [26]: Dde
- Activity [27]: Active
- Activity [28]: Active
- Activity [29]: Active
- Activity [30]: Active
- Activity [31]: Active
- Activity [32]: Dde
- Activity [33]: Active
- Activity [34]: >50%
- Activity [35]: >50%
- Activity [36]: Active
- Activity [37]: Active
- Activity [38]: Active
- Activity [39]: Active
- Activity [40]: Active
- Activity [41]: Active
- Activity [42]: Active
- Activity [43]: Active
